According to patent US9599627B2, “NMR methods for monitoring blood clot formation” (T2 Biosystems, Inc., priority 2011, dated 2017):

Columns and labels:
platelet activity = assay: T2MR platelet inhibition, heparin blood activated by AA+RF; assay type: cell-based; conditions: 600 μM aspirin ex vivo, AA+RF activation
Procedure: In this experiment platelet inhibition was monitored by the addition of 600 μM aspirin ex vivo to heparin blood prior to activation by AA+RF (samples were tested with and without aspirin). […] These studies confirmed that the clot signature was dependent on platelet activity.

[1] = tested on: P2Y12 pathway in platelets; assay: T2MR platelet inhibition, ADP activation formulation in citrated whole blood; assay type: cell-based, human; conditions: ex vivo spiked MeSAMP, healthy donors
Excerpt: We have developed a standard formulation for ADP activation of platelets in citrated whole blood which uses the addition of heparin to control thrombin activation, thereby minimizing variability in platelet activation via thrombin. Clotting in such a system is initiated with a combination of calcium (to overcome citrate), and reptilase/factor XIIIa (to replace thrombin). The complete one-pot activation mixture which activates platelets via ADP, and is therefore useful in probing the state of the P2Y12 ADP receptor, contains heparin, reptilase, factor XIIIa, calcium, and ADP.
In this experiment inhibition of the P2Y12 pathway in platelets by using the ex vivo spiked MeSAMP (2-thiomethyl AMP, an irreversible ADP P2Y12 receptor inhibitor) as a mimic for Plavix inhibition of platelet activity was tested.
A standard ADP activation formulation including heparin, reptilase, factor XIIIa, calcium, and ADP was used to activate platelet in citrated whole blood obtained from healthy donors. Samples were tested in the presence and absence of the platelet activation inhibitor MeSAMP. Again we observed that the clot signature was dependent on platelet activity.

anti-Xa = assay: PT clotting time of spiked samples (T2MR and Stago); assay type: cell-based, human; conditions: spiked at 10 ng/mL-1000 ng/mL
Procedure: Clotting times were measured by […] by first establishing a time zero T2 value (i.e., by taking the first point or some sort of average or linear fit to the first 5-10 data points) of the T2 time curve, and second identifying the time point (i.e., the clotting time or PT time) in the T2 time curve when the T2 value had changed by a predetermined amount (e.g. 5% or 10%) indicative of clotting in the sample. From the observed PT clotting time the INR was calculated using the methods described in Jan et al., Clin. Chem. 35:840 (1989). […] 18 normal samples and 24 abnormal samples were tested against a reference range established by 20 normal samples. Abnormal samples with prolonged PT times were obtained by spiking increasing levels of the anti-Xa inhibitor Rivaroxiban (10 ng/mL-1000 ng/mL). Correlation with TEG clotting time was obtained across >40 normal patient samples with non-optimized R2 correlation of >0.8. (see FIG. 14B). PT time correlations with Stago for plasma (see FIG. 14D) and with Hemochron for whole blood (see FIG. 14C) were also found.

With `CC(=O)Oc1ccccc1C(=O)O` [aspirin] the “clot-associated T2 signal” value (platelet activity) was “dramatically diminished or absent”.
`CSc1nc(N)c2ncn([C@@H]3O[C@H](COP(=O)(O)O)[C@@H](O)[C@H]3O)c2n1` [MeSAMP, 2-thiomethyl AMP] was tested, and the “clot-associated T2 signal” value [1] was “dramatically diminished or absent”.
For `O=C(NC[C@H]1CN(c2ccc(N3CCOCC3=O)cc2)C(=O)O1)c1ccc(Cl)s1` [Rivaroxiban], the PT times (anti-Xa) was “prolonged”.
